According to ChEMBL document CHEMBL4342421, “Current scenario of tetrazole hybrids for antibacterial activity” (Eur J Med Chem, 2019):
Values after ≈ are worked out from the molar mass of the structure shown.

Tests used:
Escherichia coli [1] = experiment: Antimicrobial activity against Escherichia coli; type: functional
Pseudomonas aeruginosa [2] = experiment: Antimicrobial activity against Pseudomonas aeruginosa; type: functional
Staphylococcus aureus [3] = experiment: Antimicrobial activity against Staphylococcus aureus; type: functional
Bacillus cereus [4] = experiment: Antimicrobial activity against Bacillus cereus; type: functional
Candida albicans [5] = experiment: Antifungal activity against Candida albicans; type: functional
Staphylococcus aureus [6] = experiment: Antimicrobial activity against Staphylococcus aureus assessed as zone of inhibition at 250 ug/ml; type: functional; conditions: read-out: IZ
Bacillus cereus [7] = experiment: Antimicrobial activity against Bacillus cereus assessed as zone of inhibition at 250 ug/ml; type: functional; conditions: read-out: IZ
Escherichia coli [8] = experiment: Antimicrobial activity against Escherichia coli assessed as zone of inhibition at 250 ug/ml; type: functional; conditions: read-out: IZ
Pseudomonas aeruginosa [9] = experiment: Antimicrobial activity against Pseudomonas aeruginosa assessed as zone of inhibition at 250 ug/ml; type: functional; conditions: read-out: IZ
Candida albicans [10] = experiment: Antifungal activity against Candida albicans assessed as zone of inhibition at 250 ug/ml; type: functional; conditions: read-out: IZ
Aspergillus niger [11] = experiment: Antifungal activity against Aspergillus niger assessed as zone of inhibition at 250 ug/ml; type: functional; conditions: read-out: IZ
Aspergillus niger [12] = experiment: Antifungal activity against Aspergillus niger; type: functional
Escherichia coli [13] = experiment: Antimicrobial activity against Escherichia coli assessed as zone of inhibition at 50 ug/ml; type: functional; conditions: read-out: IZ
Staphylococcus aureus [14] = experiment: Antimicrobial activity against Staphylococcus aureus assessed as zone of inhibition at 50 ug/ml; type: functional; conditions: read-out: IZ
Candida albicans [15] = experiment: Antifungal activity against Candida albicans assessed as zone of inhibition at 50 ug/ml; type: functional; conditions: read-out: IZ
Pseudomonas aeruginosa [16] = experiment: Antimicrobial activity against Pseudomonas aeruginosa assessed as zone of inhibition at 50 ug/ml; type: functional; conditions: read-out: IZ
Bacillus subtilis [17] = experiment: Antimicrobial activity against Bacillus subtilis assessed as zone of inhibition at 50 ug/ml; type: functional; conditions: read-out: IZ
Aspergillus fumigatus = experiment: Antifungal activity against Aspergillus fumigatus assessed as zone of inhibition at 50 ug/ml; type: functional; conditions: read-out: IZ
Bacillus subtilis [18] = experiment: Antimicrobial activity against Bacillus subtilis; type: functional
Salmonella typhimurium = experiment: Antimicrobial activity against Salmonella typhimurium; type: functional, Salmonella enterica subsp. enterica serovar Typhimurium; conditions: Salmonella enterica

Row | Compound | MIC (Escherichia coli [1]) | MIC (Pseudomonas aeruginosa [2]) | MIC (Staphylococcus aureus [3]) | MIC (Bacillus cereus [4]) | MIC (Candida albicans [5]) | zone of inhibition at 250 µg/mL (Staphylococcus aureus [6]) | zone of inhibition at 250 µg/mL (Bacillus cereus [7]) | zone of inhibition at 250 µg/mL (Escherichia coli [8]) | zone of inhibition at 250 µg/mL (Pseudomonas aeruginosa [9]) | zone of inhibition at 250 µg/mL (Candida albicans [10]) | zone of inhibition at 250 µg/mL (Aspergillus niger [11]) | MIC (Aspergillus niger [12]) | zone of inhibition at 50 µg/mL (Escherichia coli [13]) | zone of inhibition at 50 µg/mL (Staphylococcus aureus [14]) | zone of inhibition at 50 µg/mL (Candida albicans [15]) | zone of inhibition at 50 µg/mL (Pseudomonas aeruginosa [16]) | zone of inhibition at 50 µg/mL (Bacillus subtilis [17]) | zone of inhibition at 50 µg/mL (Aspergillus fumigatus) | MIC (Bacillus subtilis [18]) | MIC (Salmonella typhimurium)
1 | COc1cc(-c2nnnn2-c2nc3ccccc3s2)cc(OC)c1OC | 50 to 100 µg/mL (≈ 135 to 271 µM) | 50 to 100 µg/mL (≈ 135 to 271 µM) | 50 to 100 µg/mL (≈ 135 to 271 µM) | 50 to 100 µg/mL (≈ 135 to 271 µM) | 50 to 100 µg/mL (≈ 135 to 271 µM) | 16 to 26 mm | 16 to 26 mm | 16 to 26 mm | 16 to 26 mm | 16 to 26 mm | 16 to 26 mm | 50 to 100 µg/mL (≈ 135 to 271 µM) | – | – | – | – | – | – | – | –
2 | CC(=O)N1N=C(Cn2cc(-c3nn(-c4ccncc4)cc3-c3nnnn3-c3ccc(Br)cc3)c3cc(Cl)ccc32)OC1(C)c1ccc(C(F)(F)F)cc1 (stereo not given) | – | – | – | – | – | 8 to 20 mm | 8 to 20 mm | 8 to 20 mm | 8 to 20 mm | 8 to 20 mm | 8 to 20 mm | – | – | – | – | – | – | – | – | –
3 | CC(=O)N1N=C(Cn2cc(-c3nn(-c4ccncc4)cc3-c3nnnn3-c3ccccc3)c3cc(Cl)ccc32)OC1(C)c1ccc(C(F)(F)F)cc1 (stereo not given) | – | – | – | – | – | 8 to 20 mm | 8 to 20 mm | 8 to 20 mm | 8 to 20 mm | 8 to 20 mm | 8 to 20 mm | – | – | – | – | – | – | – | – | –
4 | Cc1ccc(-c2nnnn2-c2nc3ccccc3s2)cc1 | 50 to 100 µg/mL (≈ 170 to 341 µM) | 50 to 100 µg/mL (≈ 170 to 341 µM) | 50 to 100 µg/mL (≈ 170 to 341 µM) | 50 to 100 µg/mL (≈ 170 to 341 µM) | 50 to 100 µg/mL (≈ 170 to 341 µM) | 16 to 26 mm | 16 to 26 mm | 16 to 26 mm | 16 to 26 mm | 16 to 26 mm | 16 to 26 mm | 50 to 100 µg/mL (≈ 170 to 341 µM) | – | – | – | – | – | – | – | –
5 | CC(=O)N1N=C(Cn2cc(-c3nn(-c4ccncc4)cc3-c3nnnn3-c3ccc([N+](=O)[O-])cc3)c3cc(Cl)ccc32)OC1(C)c1ccc(C(F)(F)F)cc1 (stereo not given) | – | – | – | – | – | 8 to 20 mm | 8 to 20 mm | 8 to 20 mm | 8 to 20 mm | 8 to 20 mm | 8 to 20 mm | – | – | – | – | – | – | – | – | –
6 | Oc1ccc(-c2nnnn2-c2nc3ccccc3s2)cc1 | 50 to 100 µg/mL (≈ 169 to 339 µM) | 50 to 100 µg/mL (≈ 169 to 339 µM) | 50 to 100 µg/mL (≈ 169 to 339 µM) | 50 to 100 µg/mL (≈ 169 to 339 µM) | 50 to 100 µg/mL (≈ 169 to 339 µM) | 16 to 26 mm | 16 to 26 mm | 16 to 26 mm | 16 to 26 mm | 16 to 26 mm | 16 to 26 mm | 50 to 100 µg/mL (≈ 169 to 339 µM) | – | – | – | – | – | – | – | –
7 | COc1ccccc1-n1nnnc1-c1cccnc1 | – | – | – | – | – | – | – | – | – | – | – | – | 10 to 22 mm | 10 to 22 mm | 10 to 22 mm | 10 to 22 mm | 10 to 22 mm | 10 to 22 mm | – | –
8 | Clc1ccccc1-n1nnnc1-c1cccnc1 | – | – | – | – | – | – | – | – | – | – | – | – | 10 to 22 mm | 10 to 22 mm | 10 to 22 mm | 10 to 22 mm | 10 to 22 mm | 10 to 22 mm | – | –
9 | CC(=O)N1N=C(Cn2cc(-c3nn(-c4ccncc4)cc3-c3nnnn3-c3ccc(Cl)cc3)c3cc(Cl)ccc32)OC1(C)c1ccc(C(F)(F)F)cc1 (stereo not given) | – | – | – | – | – | 8 to 20 mm | 8 to 20 mm | 8 to 20 mm | 8 to 20 mm | 8 to 20 mm | 8 to 20 mm | – | – | – | – | – | – | – | – | –
10 | COc1ccc(-n2nnnc2-c2cn(-c3ccncc3)nc2-c2cn(CC3=NN(C(C)=O)C(C)(c4ccc(C(F)(F)F)cc4)O3)c3ccc(Cl)cc23)cc1 (stereo not given) | – | – | – | – | – | 8 to 20 mm | 8 to 20 mm | 8 to 20 mm | 8 to 20 mm | 8 to 20 mm | 8 to 20 mm | – | – | – | – | – | – | – | – | –
11 | Clc1cccc(-c2nnnn2-c2ccccn2)c1Cl | – | – | – | – | – | – | – | – | – | – | – | – | 10 to 24 mm | 10 to 24 mm | 10 to 24 mm | 10 to 24 mm | 10 to 24 mm | 10 to 24 mm | – | –
12 | CC(=O)N1N=C(Cn2cc(-c3nn(-c4ccncc4)cc3-c3nnnn3-c3ccc(C(F)(F)F)cc3)c3cc(Cl)ccc32)OC1(C)c1ccc(C(F)(F)F)cc1 (stereo not given) | – | – | – | – | – | 8 to 20 mm | 8 to 20 mm | 8 to 20 mm | 8 to 20 mm | 8 to 20 mm | 8 to 20 mm | – | – | – | – | – | – | – | – | –
13 | CC(=O)N1N=C(Cn2cc(-c3nn(-c4ccncc4)cc3-c3nnnn3-c3ccc(C)cc3)c3cc(Cl)ccc32)OC1(C)c1ccc(C(F)(F)F)cc1 (stereo not given) | – | – | – | – | – | 8 to 20 mm | 8 to 20 mm | 8 to 20 mm | 8 to 20 mm | 8 to 20 mm | 8 to 20 mm | – | – | – | – | – | – | – | – | –
14 | O=[N+]([O-])c1ccccc1-n1nnnc1-c1cccnc1 | – | – | – | – | – | – | – | – | – | – | – | – | 10 to 22 mm | 10 to 22 mm | 10 to 22 mm | 10 to 22 mm | 10 to 22 mm | 10 to 22 mm | – | –
15 | O=C(N[C@H](CO)[C@H](O)c1ccc([N+](=O)[O-])cc1)C(Cl)Cl [CHLORAMPHENICOL] | 30 µg/mL (≈ 92.8 µM) | – | – | – | – | – | – | – | – | – | – | – | – | – | – | – | – | – | 30 µg/mL (≈ 92.8 µM) | 30 µg/mL (≈ 92.8 µM)
